According to US11286268B1, “EIF4E-inhibiting compounds and methods” (EFFECTOR THERAPEUTICS, INC., priority 2019, dated 2022):
Read-outs that look alike come from different tables or passages of the source.

Target: recombinant eIF4E (Homo sapiens (Human), UniProt P06730)
Assay: Fluorescence polarization competition assay for eIF4E binding potency
Summary of the method: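 Competitive displacement format: compounds compete with a fluorescent m7GDP tracer (20 nM) for 75 nM recombinant eIF4E. Incubation is 30 min at room temperature, protected from light, with 1% DMSO. Polarization read gives IC50 over eight 3-fold concentrations.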

[1] = fluorescence polarization competition, 75 nM recombinant eIF4E, 20 nM EDA-m7GDP-ATTO-550, IC50 class, read-out: elF4E FP
[2] = inhibition of eIF4E/EDA-m7GDP-ATTO-550 binding by 50%, Table 4B calculated values, read-out: IC50
[3] = inhibition of eIF4E/EDA-m7GDP-ATTO-550 binding, calculated IC50 values, Table 4B, read-out: IC50

Sequence of recombinant eIF4E (P06730 whole entry): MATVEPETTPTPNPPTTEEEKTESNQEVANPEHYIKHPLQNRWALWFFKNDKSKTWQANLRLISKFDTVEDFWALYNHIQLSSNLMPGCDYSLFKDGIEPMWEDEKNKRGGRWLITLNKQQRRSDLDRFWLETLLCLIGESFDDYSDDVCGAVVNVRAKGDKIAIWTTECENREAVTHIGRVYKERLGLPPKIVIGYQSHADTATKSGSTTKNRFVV

| SMILES | IC50 [1] | IC50 [2] | IC50 [3] |
| --- | --- | --- | --- |
| Cc1cc(-c2cc(Cl)ccc2OCCn2c(C)nc3cc(N(C)C)c(-c4ccccc4)c(C#N)c3c2=O)c2scc(C(=O)O)c2n1 [compound 1040] | < 50 nM | 30 nM |  |
| Cc1nc2cnc(CN)cc2c(=O)n1CCOc1ccc(Cl)cc1-c1cccc(C(=O)O)c1 [compound 1998] |  |  | 409 nM |
| Cc1nc2cc(C(F)(F)F)cc(C#N)c2c(=O)n1CCOc1ccc(Cl)cc1N1CCC(C(=O)O)CC1 [compound 326] | > 1000 nM | 1440 nM |  |
| CCN(c1ncc2nc(C)n(CC#Cc3ccc(Cl)cc3-c3ccnc4c(C(=O)NS(=O)(=O)c5ccncc5)csc34)c(=O)c2c1C#N)C1CCN([C@H]2C[C@H](OC(F)F)C2)CC1 [compound 1769] |  |  | 16.4 nM |
| Cc1nc2cc(C(F)(F)F)c(N3CCN(C)CC3)c(C#N)c2c(=O)n1CCOc1ccc(Cl)cc1-c1ccnc(C(=O)O)c1 [compound 1221] | < 50 nM |  | 30 nM |
| Cc1nc2cncc(C#N)c2c(=O)n1CCOc1ccc(Cl)cc1-c1ccc(C(=O)O)c(C(=O)O)c1 [compound 147] | < 50 nM | 14.7 nM |  |
| Cc1nc2cnc(N(C)C3CCN(C4(CF)CC4)CC3)c(C#N)c2c(=O)n1CCOc1ccc(Cl)cc1-c1ccnc2c(C(=O)O)csc12 [compound 1428] |  |  | 12.2 nM |
| Cc1nc2c(c(=O)n1CC#Cc1ccc(Cl)cc1-c1ccnc3c(C(=O)NS(=O)(=O)CC(C)(C)C#N)csc13)C(C#N)=C(N(C)C1CCN(CC(F)(F)F)CC1)NC2 [compound 1672] |  |  | 13.2 nM |
| Cc1nc2cnc(N(C)C3CCN(CC(C)(F)F)CC3)c(C#N)c2c(=O)n1CC#Cc1ccc(Cl)cc1-c1ccnc2c(C(=O)NS(=O)(=O)CC(F)F)csc12 [compound 1105] | < 50 nM | 21.7 nM |  |
| Cc1nc2cnc(N3CCC4(CC3)CN(CC(F)F)C4)c(C#N)c2c(=O)n1CC#Cc1ccc(Cl)cc1-c1ccnc2c(C(=O)O)csc12 [compound 1136] | < 50 nM | 17 nM |  |
| C#Cc1c(-c2cc(Cl)ccc2OCCn2c(C(F)F)nc3cccc(C#N)c3c2=O)ccnc1C(=O)O [compound 163] | 50 to 1000 nM | 95.5 nM |  |
| Cn1cc2c(C(=O)O)cc(-c3cc(Cl)ccc3OCCn3cnc4cnc(C#N)cc4c3=O)cc2n1 [compound 102] | > 1000 nM | 4820 nM |  |
| CNc1c(Cl)cc2nc(C)n(CCOc3ccc(Cl)cc3-c3cc(C)nc4c(C(=O)O)csc34)c(=O)c2c1C#N [compound 694] | < 50 nM | 19.1 nM |  |
| CCC(F)(CC)CN1CCN(c2ncc3nc(C)n(CCOc4ccc(Cl)cc4-c4ccnc5c(C(=O)O)csc45)c(=O)c3c2C#N)CC1 [compound 1469] |  |  | 23 nM |
| Cc1nc2cc(C(F)(F)F)cc(C#N)c2c(=O)n1CCOc1ccc(Cl)cc1-c1ccnc2c(C(=O)O)c(C(C)C)sc12 [compound 667] | < 50 nM | 46.7 nM |  |
| Cc1ccc(-c2cc(Cl)ccc2OCCn2c(C)nc3cc(C(F)(F)F)c(CN(C)C)c(C#N)c3c2=O)c2scc(C(=O)O)c12 [compound 564] | < 50 nM | 40.5 nM |  |
| COc1ccc(-c2cc(Cl)ccc2OCCn2c(C)nc3c(C)ncc(C#N)c3c2=O)c2scc(C(=O)O)c12 [compound 721] | < 50 nM | 20.6 nM |  |
| Cc1nc2cc(OC(F)F)c(OC(F)F)c(C#N)c2c(=O)n1CCOc1ccc(Cl)cc1-c1ccnc2c(C(=O)O)csc12 [compound 541] | < 50 nM | 49.1 nM |  |
| N#Cc1cccc2nc(C(F)F)n(CCOc3ccc(Cl)cc3-c3ccc(C(=O)O)c4cnsc34)c(=O)c12 [compound 190] | 50 to 1000 nM | 301 nM |  |
| C#Cc1c(-c2cc(Cl)ccc2OCCn2c(C)nc3cc(C(F)(F)F)cc(C#N)c3c2=O)ccnc1C(=O)O [compound 58] | 50 to 1000 nM | 50.2 nM |  |
| Cc1nc2cc(C(F)(F)F)cc(C#N)c2c(=O)n1CCOc1ccc(Cl)cc1-c1ccnc2c(O)csc12 [compound 663] | 50 to 1000 nM | 332 nM |  |
| COC(=O)c1csc2c(-c3cc(Cl)ccc3OCCn3c(C)nc4cc(C(F)(F)F)c(N5CCN(C)CC5)c(C#N)c4c3=O)cc(C)nc12 [compound 1391] |  |  | 37.6 nM |
| Cc1c(C#N)c2cc(C(F)(F)F)cc(C#N)c2c(=O)n1CCOc1ccc(Cl)cc1-c1ccnc2c(C(=O)O)csc12 [compound 263] | < 50 nM |  |  |
| Cc1nc2cnc(N3CCN(C(C)C(F)F)CC3)c(C#N)c2c(=O)n1CCOc1ccc(Cl)cc1-c1ccnc2c(C(=O)O)csc12 (stereo not drawn) [compound 1312] |  |  | 8.29 nM |
| Cc1nc2cnc(N(C)C3CCN(CC(F)(F)C4CC4)CC3)c(C#N)c2c(=O)n1CC#Cc1ccc(Cl)cc1-c1ccnc2c(C(=O)O)csc12 [compound 1125] | < 50 nM | 14.5 nM |  |
| Cc1nc2cc(C(F)(F)F)cc(C#N)c2c(=O)n1CCCc1ccc(Cl)cc1-c1cccc(C(=O)O)c1 [compound 146] | 50 to 1000 nM | 259 nM |  |
| Cc1nc2cc(CN(C)C)c(OC(F)F)c(C#N)c2c(=O)n1CCOc1ccc(Cl)cc1-c1cccc(C(=O)O)c1 [compound 806] | < 50 nM | 3.58 nM |  |

| SMILES | IC50 [1] | IC50 [2] | IC50 [3] |
| --- | --- | --- | --- |
| Cc1nc(N2CCN(CC(F)F)CC2)c(C#N)c2c(=O)n(CCOc3ccc(Cl)cc3-c3ccnc4c(C(=O)O)csc34)c(C)nc12 [compound 1274] |  |  | 40.2 nM |
| Cc1cc(-c2cc(Cl)ccc2OCCn2c(C)nc3c(C4COC4)ncc(C#N)c3c2=O)c2scc(C(=O)O)c2n1 [compound 1419] |  |  | 6.76 nM |
| Cc1cc(-c2cc(Cl)ccc2OCCn2c(C)nc3cc(Cl)c(-c4cccc(C(F)F)n4)c(C#N)c3c2=O)c2scc(C(=O)O)c2n1 [compound 758] | < 50 nM | 13.1 nM |  |
| Cc1cc(-c2cc(Cl)ccc2OCCn2c(C)nc3cc(C(F)(F)F)c(C4CC4)nc3c2=O)c2scc(C(=O)O)c2n1 [compound 795] | < 50 nM | 12.1 nM |  |
| Cc1cc(-c2cc(Cl)ccc2OCCn2c(=O)c3c(C#N)cc(C(F)(F)F)cc3n(C)c2=O)c2scc(C(=O)O)c2n1 [compound 1975] |  |  | 109 nM |
| Cc1cc(-c2cc(Cl)ccc2OCCn2c(C)nc3ccc(N4CCC(O)C4)c(C#N)c3c2=O)c2scc(C(=O)O)c2n1 (stereo not drawn) [compound 1280] |  |  | 4.26 nM |
| Cc1nc2cnc(N3CCN(C)C4CC43)c(C#N)c2c(=O)n1CCOc1ccc(Cl)cc1-c1ccnc2c(C(=O)O)csc12 (stereo not drawn) [compound 1301] |  |  | 15.5 nM |
| Cc1cnc(-c2nc3c(=O)n(CCOc4ccc(Cl)cc4-c4cc(C)nc5c(C(=O)O)csc45)c(C)nc3cc2C(F)(F)F)cn1 [compound 1018] | < 50 nM | 6.71 nM |  |
| CCc1nc2cnccc2c(=O)n1CCOc1ccc(Cl)cc1-c1cccc(C(=O)O)c1 [compound 70] | 50 to 1000 nM | 432 nM |  |
| O=C(O)c1cccc(-c2cc(Cl)ccc2OCCn2cnc3ccncc3c2=O)c1 [compound 12] | > 1000 nM | 2390 nM |  |
| Cc1nc2cc(C(F)(F)F)cc(C#N)c2c(=O)n1CCOc1ccc(Cl)cc1-c1ccnc2c(C(=O)O)c(C(F)(F)F)sc12 [compound 666] | 50 to 1000 nM | 268 nM |  |
| Cc1nc2cnc(N(C)C3CCN(CC4(C(F)(F)F)CC4)CC3)c(C#N)c2c(=O)n1CC#Cc1ccc(Cl)cc1-c1ccnc2c(C(=O)O)csc12 [compound 1587] |  |  | 39.7 nM |
| Cc1nc2cnc(N(C)C3CCN(C)C(C(F)F)C3)c(C#N)c2c(=O)n1CCOc1ccc(Cl)cc1-c1ccnc2c(C(=O)O)csc12 (stereo not drawn) [compound 866] | < 50 nM | 16.8 nM |  |
| Cn1ccc2ncn(CCOc3ccc(Cl)cc3-c3cccc(C(=O)O)c3)c(=O)c21 [compound 69] | > 1000 nM | 26800 nM |  |
| Cc1nc2cnc(N(C)C3CCN(CC4CC(OC(F)F)C4)CC3)c(C#N)c2c(=O)n1CC#Cc1ccc(Cl)cc1-c1ccnc2c(C(=O)O)csc12 (stereo not drawn) [compound 1189] | < 50 nM |  | 13.4 nM |
| Cc1cc(-c2cc(Cl)ccc2OCCn2c(C)nc3cc(F)c(C)c(C#N)c3c2=O)c2scc(C(=O)O)c2n1 [compound 368] | < 50 nM | 41.1 nM |  |
| Cc1cc(-c2cc(Cl)ccc2OCCn2c(C)nc3cc(C(F)(F)F)c(-c4cnccc4C)c(C#N)c3c2=O)c2scc(C(=O)O)c2n1 [compound 736] | < 50 nM | 17 nM |  |
| Cc1nc2cnc(N3CCN(C)C(COC(F)(F)F)C3)c(C#N)c2c(=O)n1CC#Cc1ccc(Cl)cc1-c1ccnc2c(C(=O)O)csc12 (stereo not drawn) [compound 1460] |  |  | 7.99 nM |
| Cc1nc2cnc(N3CCN(CC(C)(C)C(F)(F)F)CC3)c(C#N)c2c(=O)n1CCOc1ccc(Cl)cc1-c1ccnc2c(C(=O)O)csc12 [compound 1472] |  |  | 28.9 nM |
| Cc1nc2c(C3CCN(CC(F)(F)F)CC3)ncc(C#N)c2c(=O)n1CCOc1ccc(Cl)cc1-c1ccnc2c(C(=O)O)csc12 [compound 1115] | < 50 nM | 6.77 nM |  |
| Cc1nc2cnc(N(C)C3CCN(CC(C)(C)C(F)(F)F)CC3)c(C#N)c2c(=O)n1CC#Cc1ccc(Cl)cc1-c1ccnc2c(C(=O)O)csc12 [compound 1586] |  |  | 31.8 nM |
| CCc1cc(-c2cc(Cl)ccc2OCCn2c(C)nc3cc(C(F)(F)F)c(N4CC5(C4)CN(C4CC4)C5)c(C#N)c3c2=O)c2scc(C(=O)O)c2n1 [compound 1931] |  |  | 19.7 nM |
| Cc1nc2cnc(SC3CCN(CC(F)(F)F)CC3)c(C#N)c2c(=O)n1CCOc1ccc(Cl)cc1-c1ccnc2c(C(=O)O)csc12 [compound 1349] |  |  | 36.5 nM |
| Cc1nc(N2CCN(CC(F)(F)F)CC2)c(C#N)c2c(=O)n(CCOc3ccc(Cl)cc3-c3ccnc4c(C(=O)O)csc34)c(C)nc12 [compound 886] | < 50 nM | 10.5 nM |  |
| Cc1nc2cc(C(F)(F)F)c(CN(C)C)c(F)c2c(=O)n1CCOc1ccc(Cl)cc1-c1ccnc2c(C(=O)O)csc12 [compound 621] | 50 to 1000 nM | 60 nM |  |
| N#Cc1cc2c(=O)n(CCOc3ccc(Cl)cc3-c3cncc(C(=O)O)n3)cnc2cn1 [compound 85] | > 1000 nM | 1850 nM |  |
